Experimental data from US9624241B2 (Incyte Corporation, priority 2013, dated 2017).

Assays:
Type in all cases: binding
BRD4-BD2 [1] = molecular target: T1, BRD4-BD2 (Homo sapiens (Human), UniProt O60885); test: BRD4 AlphaScreen Assay (Example A1), BRD4-BD2; conditions: Assay A1, 20 nM BRD4-BD2, 50 nM H4Ac4 peptide; read-out: BRD4 BD-2 enzyme IC50
Method: (§1) BRD4-BD1 and BRD4-BD2 assays were conducted in white 384-well polystyrene plate in a final volume of 20 μL for BD1 and 40 μL for BD2. Inhibitors were first serially diluted in DMSO and added to the plate wells before the addition of other reaction components. […] After plate sealing, the plate was incubated in the dark at room temperature for 75 min. before reading on a PHERAstar FS plate reader (BMG Labtech). IC50 determination was performed by fitting the curve of percent control activity versus the log of the inhibitor concentration using the GraphPad Prism 5.0 software.

BRD4-BD1 [2] = molecular target: T2, BRD4-BD1 (Homo sapiens (Human), UniProt O60885); test: BRD4 AlphaScreen Assay (Example A1), BRD4-BD1; conditions: Assay A1, 3.8 nM BRD4-BD1, 50 nM H4Ac4 peptide; read-out: BRD4 BD-1 enzyme IC50
Method: as §1

BRD4-BD2 [3] = molecular target: T1, BRD4-BD2; test: BRD4 AlphaScreen Assay (Example A2), BRD4-BD2
Summary of the method: (§2)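 Displacement of 50 nM biotinylated tetra-acetylated histone H4 peptide from BRD4 BD1 or BD2 (<1 nM) in Tris-HCl pH 7.5 buffer with DTT. Inhibitors serially diluted in DMSO, added first, then incubated 75 min in the dark at room temperature before AlphaScreen read. IC50 fitted from percent control activity versus log concentration.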

BRD4-BD1 [4] = molecular target: T2, BRD4-BD1; test: BRD4 AlphaScreen Assay (Example A2), BRD4-BD1
Summary of the method: as §2

[5] = Assay A2, AlphaScreen, BRD4-BD2, read-out: BRD4 BD-2 enzyme IC50
[6] = Assay A2, AlphaScreen, BRD4-BD1, read-out: BRD4 BD-1 enzyme IC50

Row | IC50 (BRD4-BD2 [3]; [5]) [nM] | IC50 (BRD4-BD1 [4]; [6]) [nM] | SMILES | also measured
1 |  |  | Cc1noc(C)c1-c1ccc2nc(NC(C)CO)n3c2c1OCC3c1ccccc1 (single isomer, unassigned) [Example 30, 2-{[7-(3,5-Dimethylisoxazol-4-yl)-4-phenyl-4,5-dihydroimidazo[1,5,4-de][1,4]benzoxazin-2-yl]amino}propan-1-ol] | IC50 (BRD4-BD2 [1]): < 100 nM; IC50 (BRD4-BD1 [2]): < 100 nM
2 |  |  | Cc1noc(C)c1-c1ccc2nc(NCCO)n3c2c1OCC3c1ccccc1 (stereo not shown) [Example 29, 2-{[7-(3,5-Dimethylisoxazol-4-yl)-4-phenyl-4,5-dihydroimidazo[1,5,4-de][1,4]benzoxazin-2-yl]amino}ethanol] | IC50 (BRD4-BD2 [1]): < 100 nM; IC50 (BRD4-BD1 [2]): < 100 nM
3 | < 100 | < 100 | CC(=O)N1CCC(c2nc3ccc(-c4c(C)noc4C)c4c3n2[C@@H](c2ccccn2)CO4)CC1 [Example 109, (4S)-2-(1-Acetylpiperidin-4-yl)-7-(3,5-dimethylisoxazol-4-yl)-4-pyridin-2-yl-4,5-dihydroimidazo[1,5,4-de][1,4]benzoxazine] | 
4 | 1000 to 10000 | 1000 to 10000 | Cc1noc(C)c1-c1ccc2nc(N3CC(O)C3)n3c2c1OCC3c1cccnc1 (single isomer, unassigned) [Example 160C, 1-[7-(3,5-Dimethylisoxazol-4-yl)-4-pyridin-3-yl-4,5-dihydroimidazo[1,5,4-de][1,4]benzoxazin-2-yl]azetidin-3-ol] | 
5 | < 100 | < 100 | Cc1noc(C)c1-c1ccc2nc(C3CCN(S(C)(=O)=O)CC3)n3c2c1OC[C@@H]3c1ccccn1 [Example 112, (4S)-7-(3,5-dimethylisoxazol-4-yl)-2-[1-(methylsulfonyl)piperidin-4-yl]-4-pyridin-2-yl-4,5-dihydroimidazo[1,5,4-de][1,4]benzoxazine] | 
6 | < 100 | < 100 | CCNc1nc2c(F)cc(-c3c(C)noc3C)c3c2n1C(c1cccnc1)CO3 (stereo not shown) [Example 158, 7-(3,5-Dimethylisoxazol-4-yl)-N-ethyl-9-fluoro-4-pyridin-3-yl-4,5-dihydroimidazo[1,5,4-de][1,4]benzoxazin-2-amine] | 
7 | < 100 | < 100 | Cc1noc(C)c1-c1ccc2[nH]c(=S)n3c2c1OCC3c1ccccn1 (stereo not shown) [Example 255, 7-(3,5-Dimethylisoxazol-4-yl)-4-pyridin-2-yl-4,5-dihydroimidazo[1,5,4-de][1,4]benzoxazine-2(1H)-thione] | 
8 | 100 to 1000 | 100 to 1000 | CNC(=O)C1Oc2c(-c3c(C)noc3C)ccc3[nH]c(=O)n(c23)C1c1ccccn1 (stereo not shown) [Example 76, 7-(3,5-dimethylisoxazol-4-yl)-N-methyl-2-oxo-4-pyridin-2-yl-1,2,4,5-tetrahydroimidazo[1,5,4-de][1,4]benzoxazine-5-carboxamide 2,2,2-trifluoroacetate] | 
9 | < 100 | < 100 | Cc1noc(C)c1-c1ccc2[nH]c(=O)n3c2c1OCC3c1ccc(F)cn1 (stereo not shown) [Example 19, 7-(3,5-Dimethylisoxazol-4-yl)-4-(5-fluoropyridin-2-yl)-4,5-dihydroimidazo[1,5,4-de][1,4]benzoxazin-2(1H)-one] | 
10 |  |  | Cc1noc(C)c1-c1ccc2[nH]c(=O)n3c2c1OCC3C1CCCCN1S(C)(=O)=O (stereo not shown) [Example 79, 7-(3,5-dimethylisoxazol-4-yl)-4-[1-(methylsulfonyl)piperidin-2-yl]-4,5-dihydroimidazo[1,5,4-de][1,4]benzoxazin-2(1H)-one] | IC50 (BRD4-BD2 [3]): 1000 to 10000 nM; IC50 (BRD4-BD1 [4]): 1000 to 10000 nM
11 | < 100 | 100 to 1000 | Cc1noc(C)c1-c1cc(C(C)O)c2[nH]c(=O)n3c2c1OC[C@@H]3c1ccccn1 (single isomer, unassigned) [Example 144A] | 
12 | < 100 | < 100 | Cc1noc(C)c1-c1ccc2nc(N3CC(NC(=O)C(C)C)C3)n3c2c1OC[C@@H]3c1ccccn1 [Example 233, N-{1-[(4S)-7-(3,5-dimethylisoxazol-4-yl)-4-pyridin-2-yl-4,5-dihydroimidazo[1,5,4-de][1,4]benzoxazin-2-yl]azetidin-3-yl}-2-methylpropanamide] | 
13 | < 100 | < 100 | Cc1noc(C)c1-c1cc(-c2ccccc2)c2[nH]c(=O)n3c2c1OCC3c1ccccc1 (stereo not shown) [Example 43, 7-(3,5-Dimethylisoxazol-4-yl)-4,9-diphenyl-4,5-dihydroimidazo[1,5,4-de][1,4]benzoxazin-2(1H)-one] | 
14 | < 100 | < 100 | Cc1noc(C)c1-c1ccc2nc(C3CCCN(C(=O)C4CC4)C3)n3c2c1OC[C@@H]3c1ccccn1 (mixture of isomers) [Example 118, (4S)-2-[1-(cyclopropylcarbonyl)piperidin-3-yl]-7-(3,5-dimethylisoxazol-4-yl)-4-pyridin-2-yl-4,5-dihydroimidazo[1,5,4-de][1,4]benzoxazine (mixture of diastereomers)] | 
15 | < 100 | 100 to 1000 | Cc1noc(C)c1-c1cc(Cl)c2[nH]c(=O)n3c2c1OCC3c1ccccn1 (single isomer, unassigned) [Example 266A, 9-chloro-7-(3,5-dimethylisoxazol-4-yl)-4-pyridin-2-yl-4,5-dihydroimidazo[1,5,4-de][1,4]benzoxazin-2(1H)-one] | 
16 | < 100 | < 100 | Cc1noc(C)c1-c1ccc2nc(C3=CCNC3)n3c2c1OC[C@@H]3c1ccccn1 [Example 105, (4S)-2-(2,5-dihydro-1H-pyrrol-3-yl)-7-(3,5-dimethylisoxazol-4-yl)-4-pyridin-2-yl-4,5-dihydroimidazo[1,5,4-de][1,4]benzoxazine] | 
17 | < 100 | 100 to 1000 | Cc1noc(C)c1-c1cc(-c2ccnc(O)c2)c2[nH]c(=O)n3c2c1OC[C@@H]3c1ccccn1 [Example 260, (4S)-7-(3,5-dimethylisoxazol-4-yl)-9-(2-hydroxypyridin-4-yl)-4-pyridin-2-yl-4,5-dihydroimidazo[1,5,4-de][1,4]benzoxazin-2(1H)-one] | 
18 | < 100 | 100 to 1000 | Cc1noc(C)c1-c1cc(CNC(=O)NC(C)C)c2[nH]c(=O)n3c2c1OC[C@@H]3c1ccccn1 [Example 142, N-{[(4S)-7-(3,5-Dimethylisoxazol-4-yl)-2-oxo-4-pyridin-2-yl-1,2,4,5-tetrahydroimidazo[1,5,4-de][1,4]benzoxazin-9-yl]methyl}-N′-isopropylurea] | 
19 | < 100 | 100 to 1000 | Cc1noc(C)c1-c1ccc2c3c1CCC(c1ccccc1)n3c(=O)n2C (racemic) [Example 121, 7-(3,5-Dimethylisoxazol-4-yl)-1-methyl-4-phenyl-5,6-dihydro-4H-imidazo[4,5,1-ij]quinolin-2(1H)-one] | 
20 | < 100 | < 100 | Cc1noc(C)c1-c1ccc2[nH]c(=O)n3c2c1OCC3c1cccnc1C(=O)NC1CC1 (single isomer, unassigned) [Example 134, N-Cyclopropyl-3-[7-(3,5-dimethylisoxazol-4-yl)-2-oxo-1,2,4,5-tetrahydroimidazo[1,5,4-de][1,4]benzoxazin-4-yl]pyridine-2-carboxamide] | 
21 | 1000 to 10000 | 1000 to 10000 | Cc1noc(C)c1-c1cc(Br)c2[nH]c(=O)n3c2c1OCC3c1ccccn1 (single isomer, unassigned) [Example 267A, 9-bromo-7-(3,5-dimethylisoxazol-4-yl)-4-pyridin-2-yl-4,5-dihydroimidazo[1,5,4-de][1,4]benzoxazin-2(1H)-one] | 
22 | < 100 | < 100 | C=Cc1nc2ccc(-c3c(C)noc3C)c3c2n1[C@@H](c1ccccn1)CO3 [Example 88, (4S)-7-(3,5-Dimethylisoxazol-4-yl)-4-pyridin-2-yl-2-vinyl-4,5-dihydroimidazo[1,5,4-de][1,4]benzoxazine] | 
23 | < 100 | 100 to 1000 | Cc1noc(C)c1-c1ccc2[nH]c(=O)n3c2c1OCC3(CN)c1ccccn1 (stereo not shown) [Example 73, 4-(Aminomethyl)-7-(3,5-dimethylisoxazol-4-yl)-4-pyridin-2-yl-4,5-dihydroimidazo[1,5,4-de][1,4]benzoxazin-2(1H)-one bis(2,2,2-trifluoroacetate)] | 
24 | 100 to 1000 | 1000 to 10000 | Cc1n[nH]c(C)c1-c1cc(-c2c(C)noc2C)c2c3c1[nH]c(=O)n3C(c1ccccn1)CO2 (stereo not shown) [Example 258, 7-(3,5-dimethylisoxazol-4-yl)-9-(3,5-dimethyl-1H-pyrazol-4-yl)-4-pyridin-2-yl-4,5-dihydroimidazo[1,5,4-de][1,4]benzoxazin-2(1H)-one] | 
25 | < 100 | 1000 to 10000 | Cc1noc(C)c1-c1cc(CNc2ccccc2)c2[nH]c(=O)n3c2c1OCC3c1ccccn1 (stereo not shown) [Example 262, 9-(anilinomethyl)-7-(3,5-dimethylisoxazol-4-yl)-4-pyridin-2-yl-4,5-dihydroimidazo[1,5,4-de][1,4]benzoxazin-2(1H)-one] | 

Row | SMILES | IC50 (BRD4-BD2 [3]; [5]) [nM] | IC50 (BRD4-BD1 [4]; [6]) [nM] | also measured
26 | CNC(=O)C1(c2ccccn2)COc2c(-c3c(C)noc3C)ccc3[nH]c(=O)n1c23 (stereo not shown) [Example 71, 7-(3,5-Dimethylisoxazol-4-yl)-N-methyl-2-oxo-4-pyridin-2-yl-1,2,4,5-tetrahydroimidazo[1,5,4-de][1,4]benzoxazine-4-carboxamide 2,2,2-trifluoroacetate] |  | 100 to 1000 | IC50 (BRD4-BD2 [3]; read-out: BRD4 BD-2 enzyme IC50): < 100 nM
